Among the data in ChEMBL document CHEMBL1141452, “Advances in development of dopaminergic aporphinoids” (J Med Chem, 2007) are Ki and IC50 values, retold here.

A value given as a limit tells only on which side of the number the result lay.

One may read the Ki as the equilibrium dissociation constant of an inhibitor or competing ligand from its target. Low values mean higher affinity, high ones lower affinity. By IC50 is commonly meant the concentration needed to halve the response being measured. High values mean a need for much substance, low ones inhibition by little substance.

One assay deals with D(2) dopamine receptor (Rattus norvegicus, UniProt P61169). Briefly: Displacement of [3H]raclopride from rat dopamine D2 receptor. In general terms: In a radioligand displacement assay an active substance lowers the binding of a labelled ligand.
D(2) dopamine receptor, sequence (P61169 whole entry): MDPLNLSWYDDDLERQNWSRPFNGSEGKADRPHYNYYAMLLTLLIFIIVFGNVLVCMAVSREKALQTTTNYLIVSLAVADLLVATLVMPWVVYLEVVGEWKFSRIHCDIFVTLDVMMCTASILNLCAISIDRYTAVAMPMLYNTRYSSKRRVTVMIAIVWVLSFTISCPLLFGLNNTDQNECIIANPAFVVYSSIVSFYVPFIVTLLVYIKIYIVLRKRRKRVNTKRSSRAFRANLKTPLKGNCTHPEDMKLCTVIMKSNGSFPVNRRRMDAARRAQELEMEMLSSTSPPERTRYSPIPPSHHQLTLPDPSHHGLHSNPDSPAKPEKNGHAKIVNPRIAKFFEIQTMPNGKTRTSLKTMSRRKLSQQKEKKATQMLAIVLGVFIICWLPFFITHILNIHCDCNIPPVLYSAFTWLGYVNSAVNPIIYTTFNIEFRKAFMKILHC
In a further assay the target is D(1A) dopamine receptor (Rattus norvegicus, UniProt P18901). Briefly: Displacement of [3H]SCH-23390 from rat dopamine D1 receptor.
D(1A) dopamine receptor, sequence (P18901 whole entry): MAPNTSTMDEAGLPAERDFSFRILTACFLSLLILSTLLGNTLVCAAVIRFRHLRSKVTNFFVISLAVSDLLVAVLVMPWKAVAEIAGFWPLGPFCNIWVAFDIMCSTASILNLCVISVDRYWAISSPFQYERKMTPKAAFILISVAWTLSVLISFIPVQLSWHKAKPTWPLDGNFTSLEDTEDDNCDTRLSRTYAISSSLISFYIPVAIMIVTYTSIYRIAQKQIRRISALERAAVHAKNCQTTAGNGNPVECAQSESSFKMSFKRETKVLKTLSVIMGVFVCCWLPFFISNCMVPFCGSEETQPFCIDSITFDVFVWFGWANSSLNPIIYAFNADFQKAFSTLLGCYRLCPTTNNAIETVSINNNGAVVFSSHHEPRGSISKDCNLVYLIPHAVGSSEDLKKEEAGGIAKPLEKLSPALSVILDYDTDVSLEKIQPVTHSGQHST
The target in assay [1] is 5-hydroxytryptamine receptor 7 (Rattus norvegicus) (UniProt P32305). Briefly: Displacement of [3H]5-HT from rat 5-HT7 receptor.
5-hydroxytryptamine receptor 7 (Rattus norvegicus), sequence (P32305 whole entry, looked up): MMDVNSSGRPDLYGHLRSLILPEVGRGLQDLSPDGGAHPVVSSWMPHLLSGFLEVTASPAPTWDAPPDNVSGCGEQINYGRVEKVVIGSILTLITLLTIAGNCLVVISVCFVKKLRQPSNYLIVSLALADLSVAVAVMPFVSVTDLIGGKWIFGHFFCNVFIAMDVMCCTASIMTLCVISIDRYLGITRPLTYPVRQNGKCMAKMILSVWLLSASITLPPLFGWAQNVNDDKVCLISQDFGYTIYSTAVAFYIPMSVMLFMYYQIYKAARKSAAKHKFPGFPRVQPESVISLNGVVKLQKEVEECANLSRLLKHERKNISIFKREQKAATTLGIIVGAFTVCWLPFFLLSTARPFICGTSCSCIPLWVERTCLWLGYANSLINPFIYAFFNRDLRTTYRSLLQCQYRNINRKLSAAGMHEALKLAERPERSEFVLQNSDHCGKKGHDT

As to `CCN1CCc2cc(OC)cc3c2C1Cc1ccccc1C3` (centres undefined), the Ki at D(2) dopamine receptor is 9.7 µM; on D(1A) dopamine receptor it was 6.6 µM.

For the molecule `Cc1ccc2c(c1O)-c1cccc3c1[C@@H](C2)N(C)CC3`, the inhibitory constant (Ki) on D(2) dopamine receptor turned out to be 1.07 µM. With `c1ccc2c(c1)C[C@H]1NCCc3cc4c(c-2c31)OCO4` [ANONAINE], the half-inhibitory concentration (IC50) was 19 µM at D(2) dopamine receptor and 68 µM at D(1A) dopamine receptor.

Take `COc1cc2c(cc1O)C[C@H]1c3c(c(I)c(O)c(OC)c3-2)CCN1C`: the values for the Ki on D(2) dopamine receptor and on D(1A) dopamine receptor were 0.068 µM and 0.002 µM, respectively. On to `CCCN1CCc2cccc3c2[C@H]1Cc1cccc(OC(C)=O)c1-3`, for which, at D(1A) dopamine receptor, the Ki was over 10 µM. Take `CCCN1CCc2cc(F)cc3c2[C@H]1Cc1cccc(OC=O)c1-3`: the inhibition constant (Ki) on D(2) dopamine receptor turned out to be 0.039 µM; on D(1A) dopamine receptor it was 0.8 µM.

With `COc1cc2c(cc1OC)-c1c(OC)c(O)c(Br)c3c1[C@H](C2)N(C)CC3`, the results for the Ki on D(2) dopamine receptor and on D(1A) dopamine receptor were 0.61 µM and 0.015 µM, respectively.

As for `CN1CCc2cc(O)c(O)c3c2C1Cc1ccccc1C3` (centres undefined), the figures for the Ki at D(2) dopamine receptor and on D(1A) dopamine receptor were 15 µM and 6.1 µM, respectively. `CCCN1CCc2cc(SC)cc3c2[C@H]1Cc1ccc(O)c(O)c1-3` registered a Ki at D(2) dopamine receptor of 0.0037 µM. Consider `COc1cc2c(cc1OC)-c1c(OC)c(O)c(I)c3c1[C@H](C2)N(C)CC3`, for which the Ki at D(2) dopamine receptor worked out at 0.83 µM; on D(1A) dopamine receptor, 0.006 µM.

As for `CCc1cccc2c1-c1cccc3c1[C@@H](C2)N(C)CC3`, the Ki on D(2) dopamine receptor worked out at 0.079 µM. In the case of `CN1CCc2ccc3c4c2[C@H]1Cc1cccc(c1-4)[C@]3(C)O`, the Ki on D(2) dopamine receptor was found to be 0.026 µM; in assay [1], 0.0043 µM. For `COc1ccc2c(c1O)Oc1c(OC)ccc3c1[C@H](C2)N(C)CC3` [SARCOCAPNIDINE], the values for the IC50 on D(2) dopamine receptor and on D(1A) dopamine receptor were 2 µM and 50 µM, respectively. As for `Cc1ccc2c(c1O)-c1cccc3c1[C@@H](C2)NCC3`, the results for the Ki on D(2) dopamine receptor and at D(1A) dopamine receptor were over 10 µM and over 20 µM, respectively.

As for `CN1CCc2ccc3c4c2[C@H]1Cc1cccc(c1-4)[C@H]3O`, the Ki was 0.024 µM at D(2) dopamine receptor and 0.014 µM in assay [1]. Consider `COc1cc2c(cc1O)Oc1c(O)ccc3c1[C@H](C2)N(C)CC3` [CELTISINE], for which the IC50 was 0.03 µM on D(2) dopamine receptor and 0.06 µM on D(1A) dopamine receptor. In the same order, the values of `COc1c(O)c2c3c(c1OC)CCN[C@@H]3Cc1ccccc1-2` [ISOPILINE] are 30 µM and 9.8 µM.

For the molecule `CCCN1CCc2cc(OC)c(OC)c3c2C1Cc1ccccc1C3` (centres undefined), the results for the Ki at D(2) dopamine receptor and at D(1A) dopamine receptor were 14 µM and over 70 µM, respectively. As for `COc1c2c3c(c4c1OCO4)-c1ccccc1C[C@H]3NCC2` [NORSTEPHALAGINE], the IC50 at D(2) dopamine receptor was 27 µM; at D(1A) dopamine receptor it was 4.8 µM. Regarding `CCCN1CCc2cc(O)cc3c2C1Cc1ccccc1C3` (centres undefined), the Ki at D(2) dopamine receptor is 40 µM; at D(1A) dopamine receptor, 30 µM. As for `COc1cc2c(cc1O)C[C@H]1c3c(ccc(O)c3O2)CCN1C` [BREOGANINE], the results for the half-inhibitory concentration (IC50) at D(2) dopamine receptor and on D(1A) dopamine receptor were 0.2 µM and 0.1 µM, respectively. Consider `CCN1CCc2cccc3c2C1Cc1cc(O)ccc1O3` (centres undefined), for which, at D(2) dopamine receptor, the Ki was over 10 µM.

`CCCN1CCc2cc(O)cc3c2C1Cc1ccccc1O3` (centres undefined): the Ki on D(2) dopamine receptor and on D(1A) dopamine receptor was over 10 µM each time. `COc1cc2c3c(c1OC)Cc1ccccc1CC3NCC2` (centres undefined): the inhibition constant Ki at D(2) dopamine receptor was 13 µM; on D(1A) dopamine receptor, 4.3 µM. In the same order, the values of `COc1cc2c(cc1OC)-c1c(OC)c(OC)c(Br)c3c1[C@H](C2)N(C)CC3` are 2.4 µM and 0.52 µM.

As to `Oc1cc2c3c(c1)Cc1ccccc1CC3NCC2` (centres undefined), the Ki at D(2) dopamine receptor worked out at 20 µM; on D(1A) dopamine receptor, 3.7 µM. In the same order, the values of `CN1CCc2cc(-c3ccc(O)cc3)cc3c2[C@H]1Cc1cccc(O)c1-3` are 0.0038 µM and 0.17 µM. `CCCN1CCc2cccc3c2[C@H]1Cc1ccc(C)c(O)c1-3`: the Ki was 0.25 µM on D(2) dopamine receptor and 2 µM at D(1A) dopamine receptor. `COc1cc2c3c(c1)Cc1ccccc1CC3N(C)CC2` (centres undefined): the inhibition constant Ki on D(2) dopamine receptor was found to be 8.2 µM; at D(1A) dopamine receptor, 8.6 µM. For `CCCN1CCc2cc(OC)cc3c2C1Cc1ccccc1C3` (centres undefined), the Ki at D(2) dopamine receptor was determined as 14 µM; at D(1A) dopamine receptor it was 11.6 µM. On to `COc1cc2c(cc1OC)Oc1c(O)ccc3c1[C@H](C2)N(C)CC3` [CULARIDINE], for which the values for the IC50 at D(2) dopamine receptor and at D(1A) dopamine receptor were 0.3 µM and 0.8 µM, respectively.

`CCCCCCCCCCCCCCCCCCCCCC(=O)Oc1cccc2c1-c1cccc3c1[C@@H](C2)N(CCC)CC3`: the figures for the Ki on D(2) dopamine receptor and on D(1A) dopamine receptor were 0.18 µM and over 10 µM, respectively.

For the molecule `CCCN1CCc2cccc3c2C1Cc1cc(O)ccc1O3` (centres undefined), the inhibition constant Ki on D(2) dopamine receptor and on D(1A) dopamine receptor was over 10 µM throughout.

Take `CCN1CCc2cc(O)cc3c2C1Cc1ccccc1C3` (centres undefined): the Ki at D(2) dopamine receptor is 15 µM; on D(1A) dopamine receptor, over 20 µM. As to `COc1cc2c(cc1O)C[C@@H]1NCCc3cc(O)c(OC)c-2c31` [NORBOLDINE], the 50% inhibitory concentration (IC50) on D(2) dopamine receptor was found to be 6.8 µM; on D(1A) dopamine receptor it was 2.5 µM. For the molecule `COc1cc2c3c(c1OC)Cc1ccccc1CC3N(C)CC2` (centres undefined), the Ki at D(2) dopamine receptor is over 20 µM; at D(1A) dopamine receptor, 7.2 µM. `CN1CCc2cc(O)cc3c2C1Cc1ccccc1C3` (centres undefined): the Ki on D(2) dopamine receptor amounted to 8.9 µM; on D(1A) dopamine receptor it was 6.4 µM. On to `O=C1c2ccccc2-c2c3c(cc4ccnc1c24)OCO3` [LIRIODENINE], for which the IC50 is 59 µM at D(2) dopamine receptor and 75 µM on D(1A) dopamine receptor. On to `COc1cc2c(cc1OC)-c1c(OC)c(O)cc3c1[C@H](C2)N(C)CC3` [PREDICENTRINE], for which the Ki at D(2) dopamine receptor amounted to 0.76 µM; at D(1A) dopamine receptor it was 0.24 µM. With `Oc1cccc2c1-c1cccc3c1[C@@H](C2)NCC3`, the Ki at D(2) dopamine receptor was found to be 1 µM. With `CCCN1CCc2cc(OC)cc3c2[C@H]1Cc1ccc(O)c(O)c1-3`, the half-maximal inhibitory concentration (IC50) at D(2) dopamine receptor came to 0.0102 µM.

`CCN1CCc2cc(O)c(O)c3c2C1Cc1ccccc1C3` (centres undefined): the Ki on D(2) dopamine receptor was found to be 16 µM; at D(1A) dopamine receptor it was 8.3 µM. Take `Cc1cccc(C#N)c1-c1cccc2c1-c1cccc3c1[C@@H](C2)N(C)CC3` (stereo in doubt; 58): the Ki in assay [1] came out at 0.0038 µM. Turning to `CCCCC(=O)Oc1cccc2c1-c1cccc3c1[C@@H](C2)N(CCC)CC3`, the Ki was 0.034 µM at D(2) dopamine receptor and over 20 µM on D(1A) dopamine receptor. Consider `CCCN1CCc2cc(O)c(O)c3c2C1Cc1ccccc1C3` (centres undefined), for which the values for the Ki at D(2) dopamine receptor and at D(1A) dopamine receptor were 6.7 µM and 22.3 µM, respectively. Regarding `COc1cc2c(cc1OC)-c1c(OC)c(OC)c(I)c3c1[C@H](C2)N(C)CC3`, the figures for the inhibition constant Ki on D(2) dopamine receptor and on D(1A) dopamine receptor were 4.5 µM and 2.11 µM, respectively. `COc1cc2c(cc1O)C[C@H]1c3c(c(Br)c(O)c(OC)c3-2)CCN1C` [3-BROMOBOLDINE]: the values for the Ki on D(2) dopamine receptor and on D(1A) dopamine receptor were 0.74 µM and 0.049 µM, respectively. `CCCN1CCc2cc(O)cc3c2[C@H]1Cc1ccc(O)c(O)c1-3` had an IC50 at D(2) dopamine receptor of 7e-05 µM. `CN1CCc2ccc3c4c2[C@H]1Cc1cccc(c1-4)[C@@H]3O`: the Ki turned out to be 0.21 µM on D(2) dopamine receptor and 0.1 µM in assay [1]. Turning to `COc1cc2c3c(c1OC)Cc1ccccc1CC3N(Cc1ccccc1)CC2` (centres undefined), the values for the Ki on D(2) dopamine receptor and at D(1A) dopamine receptor were 4.9 µM and over 60 µM, respectively. With `COc1cc2c3c(c1)Cc1ccccc1CC3NCC2` (centres undefined), the values for the inhibitory constant (Ki) at D(2) dopamine receptor and at D(1A) dopamine receptor were 19 µM and 6.3 µM, respectively. For the molecule `Oc1ccc2c(c1)C[C@H]1NCCc3cc4c(c-2c31)OCO4` [ANOLOBINE], the IC50 at D(2) dopamine receptor was determined as 15 µM; on D(1A) dopamine receptor, 36 µM. As for `Oc1cc2c3c(c1O)Cc1ccccc1CC3NCC2` (centres undefined), the Ki at D(2) dopamine receptor came out at 8 µM; at D(1A) dopamine receptor it was 10.8 µM. Consider `CN1CCc2cc(O)cc3c2C1Cc1ccccc1O3` (centres undefined), for which the Ki at D(2) dopamine receptor stood at 0.27 µM; at D(1A) dopamine receptor, 3 µM.
